Results as given in patent US8546426B2, “N-aminotetrahydroisoquinolines as anti-cancer agents” (Florida A&M University Board of Trustees, priority 2011, dated 2013).
In brackets after ≈: the same amount, converted by molar mass.

Columns and labels:
Type in all cases: cell-based
[1] = test system: Ishikawa cells; assay: […]-GLO luminescent cell viability assay, Ishikawa; conditions: Homo sapiens, 5000 cells/well, 72 h at 37° C.
Method: (§1) All the compounds are tested in three cell lines. Different concentration of compounds, ranging from about 0.01 nM to about 100,000 nM were delivered to 5×10^3 cells per well, which were then incubated for three days at 37° C., followed by CTG assay.
(§2) In this assay, the number of viable cells in culture is determined based on the quantification of ATP present, which signals the presence of metabolically active cells. Damaged cells are not detected as the ATP leaked from these cells is quickly consumed by ATPases that are also released upon damage). The amount of ATP is determined using a system based on luciferase and D-luciferin resulting in light generation.
(§3) The cell lines were plated in 13, 96 well plates at a density of 5000 cells/well in total volumes of 50 μL in phenol-red free medium and incubated for overnight.
(§4) 25 μL of 40 nM estradiol should be added to all appropriate wells on the plate. […] 25 μL of stocks (containing the compounds to be tested, DMSO and phenol-red free medium) were added to cells and medium already on plate. 50 μL of medium were added to media wells, and 50 μL of mix (contain 32 mL DMSO+768 mL phenol-red free medium) to all vehicle control wells.
(§5) Luminescence results were read on TriLux Luminometer. The luminescent signal is proportional to the number of active cells present in culture. […] As a consequence, the number of metabolically active cells can be directly derived from the luminescent signal using a specific calibration curve. Data were expressed as percentage of untreated control (i.e. treatment value-blank/vehicle value blank), mean±SE for three replications.

[2] = test system: MCF-7 estrogen receptor-positive breast cancer cells; assay: […]-GLO luminescent cell viability assay, MCF-7; conditions: Homo sapiens, MCF7, MCF-7 cells, 5000 cells/well, 72 h at 37° C.
Method: as §1, §2, §3, §4, §5

[3] = test system: MDA-MB-231 estrogen receptor-negative breast cancer cell line; assay: […]-GLO luminescent cell viability assay, MDA-MB-231; conditions: Homo sapiens, MDA-MB-231 cells, 5000 cells/well, 72 h at 37° C.
Method: as §1, §2, §3, §4, §5

SMILES	IC50 [2]	IC50 [3]	IC50 [1]
COc1ccc(S(=O)(=O)NN2CCc3ccccc3C2)cc1 [Redda-CM-3-13, N-(3,4-dihydroisoquinolin-2(1H)-yl)-4-methoxybenzenesulfonamide]	1.27 µg/mL (≈ 3.99 µM)	0.76 µg/mL (≈ 2.39 µM)	0.45 µg/mL (≈ 1.41 µM)
O=C(NN1CCc2ccccc2C1)c1ccc(Cl)cc1 [Redda-GM-3-18, 4-chloro-N-(3,4-dihydroisoquinolin-2(1H)-yl)bemamide]	0.71 µg/mL (≈ 2.48 µM)	0.8 µg/mL (≈ 2.79 µM)	0.61 µg/mL (≈ 2.13 µM)
O=C(NN1CCc2ccccc2C1)c1ccccc1 [Redda-GM-3-15, N-(3,4-dihydroisoquinolin-2-(1H)-yl)benzamide]	0.63 µg/mL (≈ 2.5 µM)	0.74 µg/mL (≈ 2.93 µM)	0.23 µg/mL (≈ 0.912 µM)

The next lines start with results.

IC50 [2]	IC50 [3]	SMILES	IC50 [1]
0.7 µg/mL (≈ 2.63 µM)	1.02 µg/mL (≈ 3.83 µM)	Cc1ccc(C(=O)NN2CCc3ccccc3C2)cc1 [Redda-GM-3-19]	0.44 µg/mL (≈ 1.65 µM)
0.93 µg/mL (≈ 3.29 µM)	0.78 µg/mL (≈ 2.76 µM)	COc1ccc(C(=O)NN2CCc3ccccc3C2)cc1 [Redda-GM-3-16, N-(3,4-dihydroisoquinolin-2(1H)-yl)-4-methoxybenzamide]	0.21 µg/mL (≈ 0.744 µM)
